Measured values as given in patent US9670261B2 (Sanofi, priority 2012, dated 2017).
Values after ≈ are worked out from the molar mass of the structure shown. *1 amine or outer side, *2 acyl side, *3 side chain or, on linkers, in order; H or OH if unused. Where a SMILES comes first, the peptide text is derived from it. Side-chain parts run from the residue outwards. [ ]: non-standard residue; d: D form. The star is where a group is joined. γGlu = O=C(O)[C@H](CCC(=O)[*:2])N[*:1]; Stearoyl = CCCCCCCCCCCCCCCCCC(=O)*; Palmitoyl = CCCCCCCCCCCCCCCC(=O)*; Aib = CC(C)(N)C(=O)O; βAla = NCCC(=O)O

Columns and labels:
[1] = Pharmacokinetic testing in mice, s.c.; conditions: mouse, plasma, sc, 1 mg/kg
Protocol: Mice were dosed 1 mg/kg subcutaneously (s.c.). The mice were sacrified and blood samples were collected after 0.25, 0.5, 1, 2, 4, 8, 16 and 24 hours post application. Plasma samples were analyzed after protein precipitation via liquid chromatography mass spectrometry (LC/MS). PK parameters and half-life were calculated using WinonLin Version 5.2.1 (non-compartment model).

[2] = Solubility testing in buffer (HPLC-UV); conditions: buffer
[3] = Chemical stability in solution, 7 days at 25° C. (% remaining peptide); conditions: % remaining peptide after 7 days at 25° C.
Protocol: After that time course, the sample was centrifuged for 20 min at 4000 rpm and the supernatant was analysed with HPLC-UV. For determination of the amount of the remaining peptide, the peak areas of the target compound at t0 and t7 were compared, resulting in “% remaining peptide”, following the equation % remaining peptide=[(peak area peptide t7)×100]/peak area peptide t0.
The chemical stability is expressed as “% remaining peptide”.

human GLP-1 receptor = target: T1, human GLP-1 receptor (Homo sapiens, UniProt P43220); assay: cAMP response (HTRF) of HEK-293 cells stably expressing human GLP-1 receptor; assay type: cell-based; conditions: Table 7; cAMP formation; read-out: EC50 hGLP-1 R
T1 construct: expressed in transfected cells
Protocol: cAMP content of cells was determined using a kit from Cisbio Corp. (cat. no. 62AM4PEC) based on HTRF (Homogenous Time Resolved Fluorescence). For preparation, cells were split into T175 culture flasks and grown overnight to near confluency in medium (DMEM/10% FBS). Medium was then removed and cells washed with PBS lacking calcium and magnesium, followed by proteinase treatment with accutase (Sigma-Aldrich cat. no. A6964). Detached cells were washed and resuspended in assay buffer (1×HBSS; 20 mM HEPES, 0.1% BSA, 2 mM IBMX) and cellular density determined. They were then diluted to 400000 cells/ml and 25 μl-aliquots dispensed into the wells of 96-well plates. For measurement, 25 μl of test compound in assay buffer was added to the wells, followed by incubation for 30 minutes at room temperature.

T1 sequence (P43220 24-463): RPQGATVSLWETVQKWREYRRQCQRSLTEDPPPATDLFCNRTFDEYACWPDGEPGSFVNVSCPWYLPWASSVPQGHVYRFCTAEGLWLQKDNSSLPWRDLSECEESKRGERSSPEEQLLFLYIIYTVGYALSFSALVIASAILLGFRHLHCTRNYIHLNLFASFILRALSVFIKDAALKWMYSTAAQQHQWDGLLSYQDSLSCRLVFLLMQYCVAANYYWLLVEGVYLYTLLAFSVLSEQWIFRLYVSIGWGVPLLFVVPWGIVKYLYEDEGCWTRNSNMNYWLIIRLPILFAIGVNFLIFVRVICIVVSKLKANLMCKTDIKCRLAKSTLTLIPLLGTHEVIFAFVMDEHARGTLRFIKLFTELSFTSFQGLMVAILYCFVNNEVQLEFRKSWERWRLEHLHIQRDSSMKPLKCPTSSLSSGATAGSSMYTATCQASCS

| Compound | Cmax [1] | half-life [1] | solubility at 2 h ([2]; pH 4.5) | solubility at 2 h ([2]; pH 7.4) | Stability (pH 4.5) [3] | Stability (pH 7.4) [3] | EC50 (human GLP-1 receptor) |
| --- | --- | --- | --- | --- | --- | --- | --- |
| CCCCCCCCCCCCCCCCCC(=O)N[C@@H](CCC(=O)NCCCC[C@H](NC(=O)[C@H](CCC(N)=O)NC(=O)[C@@H](NC(=O)[C@H](CO)NC(=O)[C@H](CC(C)C)NC(=O)[C@H](CC(=O)O)NC(=O)[C@H](CO)NC(=O)[C@@H](NC(=O)[C@H](Cc1ccccc1)NC(=O)[C@@H](NC(=O)CNC(=O)[C@H](CCC(=O)O)NC(=O)C(C)(C)NC(=O)[C@@H](N)Cc1ccc(O)cc1)[C@@H](C)O)[C@@H](C)O)[C@@H](C)CC)C(=O)N[C@@H](CCC(=O)O)C(=O)N[C@@H](CCCCN)C(=O)N[C@@H](CCCNC(=N)N)C(=O)N[C@@H](C)C(=O)N[C@@H](C)C(=O)NC(C)(C)C(=O)N[C@@H](CCC(=O)O)C(=O)N[C@@H](Cc1ccccc1)C(=O)N[C@H](C(=O)N[C@@H](CCC(=O)O)C(=O)N[C@@H](Cc1c[nH]c2ccccc12)C(=O)N[C@@H](CC(C)C)C(=O)N[C@@H](CCCCN)C(=O)N[C@@H](CC(N)=O)C(=O)N[C@H](C(=O)NCC(=O)N1CCC[C@H]1C(=O)N[C@@H](CO)C(=O)N[C@@H](CO)C(=O)NCC(=O)N[C@@H](C)C(=O)N1CCC[C@H]1C(=O)N1CCC[C@H]1C(=O)N1CCC[C@H]1C(=O)N[C@@H](CO)C(N)=O)[C@@H](C)O)[C@@H](C)CC)C(=O)O [SEQ ID NO: 15, Y-Aib-E-G-T-F-T-S-D-L-S-I-Q-K(γE-x70)-E-K-R-A-A-Aib-E-F-I-E-W-L-K-N-T-G-P-S-S-G-A-P-P-P-S-NH2] (H-Y[Aib]EGTFTSDLSIQK([γGlu-Stearoyl])EKRAA[Aib]EFIEWLKNTGPSSGAPPPS-NH2) | 5000 ng/mL | 3.5 h | 997 µg/mL (≈ 216 µM) | > 1000 µg/mL | 91.0% | 90.0% |  |
| CCCCCCCCCCCCCCCCCC(=O)NCCC(=O)NCCC(=O)NCCCC[C@H](NC(=O)[C@H](CCC(N)=O)NC(=O)[C@@H](NC(=O)[C@H](CO)NC(=O)[C@H](CC(C)C)NC(=O)[C@H](CC(=O)O)NC(=O)[C@H](CO)NC(=O)[C@@H](NC(=O)[C@H](Cc1ccccc1)NC(=O)[C@@H](NC(=O)CNC(=O)[C@H](CCC(=O)O)NC(=O)C(C)(C)NC(=O)[C@@H](N)Cc1ccc(O)cc1)[C@@H](C)O)[C@@H](C)O)[C@@H](C)CC)C(=O)N[C@@H](CCC(=O)O)C(=O)N[C@@H](CCCCN)C(=O)N[C@@H](CCCNC(=N)N)C(=O)N[C@@H](C)C(=O)N[C@@H](C)C(=O)NC(C)(C)C(=O)N[C@@H](CCC(=O)O)C(=O)N[C@@H](Cc1ccccc1)C(=O)N[C@H](C(=O)N[C@@H](CCC(=O)O)C(=O)N[C@@H](Cc1c[nH]c2ccccc12)C(=O)N[C@@H](CC(C)C)C(=O)N[C@@H](CCCCN)C(=O)N[C@@H](CC(N)=O)C(=O)N[C@H](C(=O)NCC(=O)N1CCC[C@H]1C(=O)N[C@@H](CO)C(=O)N[C@@H](CO)C(=O)NCC(=O)N[C@@H](C)C(=O)N1CCC[C@H]1C(=O)N1CCC[C@H]1C(=O)N1CCC[C@H]1C(=O)N[C@@H](CO)C(N)=O)[C@@H](C)O)[C@@H](C)CC [SEQ ID NO: 18, Y-Aib-E-G-T-F-T-S-D-L-S-I-Q-K(βA-βA-x70)-E-K-R-A-A-Aib-E-F-I-E-W-L-K-N-T-G-P-S-S-G-A-P-P-P-S-NH2] (H-Y[Aib]EGTFTSDLSIQK([βAla-βAla-Stearoyl])EKRAA[Aib]EFIEWLKNTGPSSGAPPPS-NH2) | 5750 ng/mL | 2.1 h |  |  |  |  | 7.6 pM |
| CCCCCCCCCCCCCCCC(=O)N[C@@H](CCC(=O)NCCCC[C@H](NC(=O)[C@H](CCC(N)=O)NC(=O)[C@@H](NC(=O)[C@H](CO)NC(=O)[C@H](CC(C)C)NC(=O)[C@H](CC(=O)O)NC(=O)[C@H](CO)NC(=O)[C@@H](NC(=O)[C@H](Cc1ccccc1)NC(=O)[C@@H](NC(=O)CNC(=O)[C@H](CCC(=O)O)NC(=O)C(C)(C)NC(=O)[C@@H](N)Cc1ccc(O)cc1)[C@@H](C)O)[C@@H](C)O)[C@@H](C)CC)C(=O)N[C@@H](CCC(=O)O)C(=O)N[C@@H](CCCCN)C(=O)N[C@@H](CCCNC(=N)N)C(=O)N[C@@H](C)C(=O)N[C@@H](C)C(=O)N[C@@H](CCC(N)=O)C(=O)N[C@@H](CCC(=O)O)C(=O)N[C@@H](Cc1ccccc1)C(=O)N[C@H](C(=O)N[C@@H](CCC(=O)O)C(=O)N[C@@H](Cc1c[nH]c2ccccc12)C(=O)N[C@@H](CC(C)C)C(=O)N[C@@H](CCCCN)C(=O)N[C@@H](CC(N)=O)C(=O)N[C@H](C(=O)NCC(=O)N1CCC[C@H]1C(=O)N[C@@H](CO)C(=O)N[C@@H](CO)C(=O)NCC(=O)N[C@@H](C)C(=O)N1CCC[C@H]1C(=O)N1CCC[C@H]1C(=O)N1CCC[C@H]1C(=O)N[C@@H](CO)C(N)=O)[C@@H](C)O)[C@@H](C)CC)C(=O)O [SEQ ID NO: 26, Y-Aib-E-G-T-F-T-S-D-L-S-I-Q-K(γE-x53)-EKRAAQEFIEWLKNTGPSSGAPPPS-NH2] (H-Y[Aib]EGTFTSDLSIQK([γGlu-Palmitoyl])EKRAAQEFIEWLKNTGPSSGAPPPS-NH2) | 3120 ng/mL | 3.7 h |  |  |  |  | 4.9 pM |
| CCCCCCCCCCCCCCCC(=O)N[C@@H](CCC(=O)NCCCC[C@H](NC(=O)[C@H](CCC(N)=O)NC(=O)[C@@H](NC(=O)[C@H](CO)NC(=O)[C@H](CC(C)C)NC(=O)[C@H](CC(=O)O)NC(=O)[C@H](CO)NC(=O)[C@@H](NC(=O)[C@H](Cc1ccccc1)NC(=O)[C@@H](NC(=O)CNC(=O)[C@H](CCC(=O)O)NC(=O)C(C)(C)NC(=O)[C@@H](N)Cc1ccc(O)cc1)[C@@H](C)O)[C@@H](C)O)[C@@H](C)CC)C(=O)N[C@@H](CC(=O)O)C(=O)N[C@@H](CCCCN)C(=O)N[C@@H](CCCNC(=N)N)C(=O)N[C@@H](C)C(=O)N[C@@H](C)C(=O)N[C@@H](CCC(N)=O)C(=O)N[C@@H](CC(=O)O)C(=O)N[C@@H](Cc1ccccc1)C(=O)N[C@H](C(=O)N[C@@H](CCC(=O)O)C(=O)N[C@@H](Cc1c[nH]c2ccccc12)C(=O)N[C@@H](CC(C)C)C(=O)N[C@@H](CCCCN)C(=O)N[C@@H](C)C(=O)NCC(=O)NCC(=O)N1CCC[C@H]1C(=O)N[C@@H](CO)C(=O)N[C@@H](CO)C(=O)NCC(=O)N[C@@H](C)C(=O)N1CCC[C@H]1C(=O)N1CCC[C@H]1C(=O)N1CCC[C@H]1C(=O)N[C@@H](CO)C(N)=O)[C@@H](C)CC)C(=O)O [SEQ ID NO: 31, Y-Aib-E-G-T-F-T-S-D-L-S-I-Q-K(γE-x53)-DKRAAQDFIEWLKAGGPSSGAPPPS-NH2] |  |  | > 1000 µg/mL | > 1000 µg/mL | 94.0% | 96.0% | 6 pM |
